In article PMC5068967, “Nucleophile sensitivity of Drosophila TRPA1 underlies light-induced feeding deterrence” (eLife, 2016):
Each block holds one molecule with its values, some of them ahead of it.

Tests used:
[1] = target: T1, Drosophila TRPA1(B) (Drosophila melanogaster, UniProt Q7Z020); assay: Two-electrode voltage clamp of Xenopus oocytes expressing Drosophila TRPA1(B); assay type: cell-based
T1 construct: expressed in transfected cells; host or cells: Xenopus laevis oocytes injected with TrpA1 cRNA
T1 sequence (Q7Z020 1-1197): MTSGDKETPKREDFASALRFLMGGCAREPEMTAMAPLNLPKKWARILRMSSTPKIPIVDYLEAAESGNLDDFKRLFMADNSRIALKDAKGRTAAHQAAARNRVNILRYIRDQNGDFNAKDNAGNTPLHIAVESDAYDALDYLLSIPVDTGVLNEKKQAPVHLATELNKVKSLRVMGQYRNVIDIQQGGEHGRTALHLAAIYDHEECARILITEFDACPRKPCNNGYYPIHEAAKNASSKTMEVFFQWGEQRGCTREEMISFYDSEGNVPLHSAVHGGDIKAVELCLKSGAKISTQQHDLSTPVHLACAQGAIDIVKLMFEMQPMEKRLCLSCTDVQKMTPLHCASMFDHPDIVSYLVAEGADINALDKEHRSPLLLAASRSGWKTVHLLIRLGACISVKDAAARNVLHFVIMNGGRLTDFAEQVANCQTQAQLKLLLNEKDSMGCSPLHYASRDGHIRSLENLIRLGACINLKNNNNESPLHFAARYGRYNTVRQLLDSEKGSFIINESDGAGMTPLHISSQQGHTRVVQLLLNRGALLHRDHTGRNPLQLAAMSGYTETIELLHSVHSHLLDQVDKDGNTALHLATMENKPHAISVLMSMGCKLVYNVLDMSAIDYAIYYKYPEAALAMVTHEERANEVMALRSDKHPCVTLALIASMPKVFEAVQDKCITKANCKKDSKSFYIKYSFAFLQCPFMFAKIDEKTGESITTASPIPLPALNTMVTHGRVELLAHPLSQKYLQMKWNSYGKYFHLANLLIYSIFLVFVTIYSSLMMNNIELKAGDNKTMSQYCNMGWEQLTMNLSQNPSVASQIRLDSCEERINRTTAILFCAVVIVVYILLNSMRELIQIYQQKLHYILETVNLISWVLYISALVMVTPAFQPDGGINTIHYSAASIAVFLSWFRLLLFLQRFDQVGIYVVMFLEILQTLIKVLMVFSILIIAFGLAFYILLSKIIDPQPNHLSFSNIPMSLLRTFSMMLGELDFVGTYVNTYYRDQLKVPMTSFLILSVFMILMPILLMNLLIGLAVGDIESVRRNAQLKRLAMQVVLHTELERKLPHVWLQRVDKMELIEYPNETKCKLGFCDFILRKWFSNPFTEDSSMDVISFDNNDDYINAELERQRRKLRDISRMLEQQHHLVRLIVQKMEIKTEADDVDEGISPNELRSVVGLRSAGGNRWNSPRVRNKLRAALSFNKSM
Protocol: (§1) TRPA1-dependent currents in Xenopus laevis oocytes induced by application of chemicals and light illumination were recorded by the two-electrode voltage clamping technique (TEVC), as described previously ([Kang et al., 2010]; [Kang et al., 2012]). Briefly, ovaries were surgically prepared and subjected to digestion with 1.5 mg/ml collagenase for 1.5 hr. Subsequently, the follicular layer of the oocytes was manually removed. One day after microinjection of 50 nl of TrpA1 cRNA, oocytes were electrophysiologically examined while perfused with the recording solution (96 mM NaCl, 1 mM KCl, 1 mM MgCl2, 5 mM HEPES, pH 7.6). For UV illumination, the optical fiber terminal was mounted above the cell at a minimal distance to achieve the highest possible intensity (Figure 1—figure supplement 1c). […] For UV experiments, the initial voltage was −60 mV, and it was then changed in periods of 300 ms from −60 to +60 mV per second. […] The current was amplified with a GeneClamp 500B amplifier (Molecular Devices, CA, USA) and registered by a digitizer (Digidata 1440 A, Molecular Devices, CA, USA). Data from dose-dependence experiments were normalized with respect to 0.1 mM NMM currents recorded from the same cells, and fitted to the Hill equation using Sigmaplot12.

[2] = target: T2, human TRPA1 (humTRPA1) (Homo sapiens, UniProt O75762); assay: Two-electrode voltage clamp of Xenopus oocytes expressing human TRPA1; assay type: cell-based
T2 construct: expressed in transfected cells; host or cells: Xenopus laevis oocytes injected with TrpA1 cRNA
T2 sequence (O75762 whole entry): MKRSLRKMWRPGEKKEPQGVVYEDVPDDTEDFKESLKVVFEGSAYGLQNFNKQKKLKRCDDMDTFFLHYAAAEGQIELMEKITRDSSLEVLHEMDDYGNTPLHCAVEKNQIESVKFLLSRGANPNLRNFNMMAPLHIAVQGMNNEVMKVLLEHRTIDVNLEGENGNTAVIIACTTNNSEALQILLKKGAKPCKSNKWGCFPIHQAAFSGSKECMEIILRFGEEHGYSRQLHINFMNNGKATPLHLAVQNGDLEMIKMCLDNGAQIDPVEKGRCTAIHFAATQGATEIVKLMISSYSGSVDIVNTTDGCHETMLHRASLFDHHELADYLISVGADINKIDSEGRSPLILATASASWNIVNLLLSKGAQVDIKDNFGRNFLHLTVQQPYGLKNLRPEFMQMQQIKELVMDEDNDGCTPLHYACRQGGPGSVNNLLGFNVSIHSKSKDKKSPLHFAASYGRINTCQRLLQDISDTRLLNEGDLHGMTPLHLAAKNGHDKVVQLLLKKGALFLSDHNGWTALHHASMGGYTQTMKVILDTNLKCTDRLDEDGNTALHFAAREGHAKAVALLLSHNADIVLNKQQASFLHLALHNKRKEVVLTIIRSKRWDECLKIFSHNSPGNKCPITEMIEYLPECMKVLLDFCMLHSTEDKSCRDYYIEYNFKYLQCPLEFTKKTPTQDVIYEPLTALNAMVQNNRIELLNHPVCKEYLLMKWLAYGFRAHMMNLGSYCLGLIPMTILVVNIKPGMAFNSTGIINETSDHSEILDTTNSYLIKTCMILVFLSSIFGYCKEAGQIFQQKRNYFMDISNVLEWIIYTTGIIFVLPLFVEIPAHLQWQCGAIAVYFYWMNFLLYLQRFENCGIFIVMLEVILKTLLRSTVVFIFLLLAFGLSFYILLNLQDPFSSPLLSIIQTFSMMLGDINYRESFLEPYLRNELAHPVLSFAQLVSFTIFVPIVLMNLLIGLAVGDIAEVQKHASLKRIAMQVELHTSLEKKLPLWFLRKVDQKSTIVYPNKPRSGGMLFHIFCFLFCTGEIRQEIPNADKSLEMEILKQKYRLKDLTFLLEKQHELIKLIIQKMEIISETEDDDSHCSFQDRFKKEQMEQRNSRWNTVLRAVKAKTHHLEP
Protocol: as §1

[3] = tested on: TRPA1(A)C105A; assay: Two-electrode voltage clamp of Xenopus oocytes expressing TRPA1(A)C105A; assay type: cell-based, Drosophila melanogaster
Protocol: as §1

[4] = tested on: bitter-sensing neurons in i-bristles; assay: Extracellular single sensillum recording from labellum i-bristles; assay type: in vivo, Drosophila melanogaster; details: for effect of pre-application on UV-evoked action potentials: i-a bristles, applied via the recording electrode, concentrations below those eliciting fast activation
Protocol: In vivo taste cell recordings were performed as detailed previously ([Kang et al., 2012]). Briefly, bristles were identified based on the previously described sensillum map of the labellum ([Weiss et al., 2011]; [Tanimura et al., 2009]). […] Tricholine citrate (TCC) at 30 mM was used as an electrolyte in the glass recording electrodes. Chemicals were solubilized in the electrolyte solution, and then applied to taste neurons. Spiking frequencies to chemicals were calculated for entire recordings except for H2O2 recording in L bristles, for which spiking frequencies were calcuclated from the first 10 s. […] For the first 20 s of UV response recordings, the basal activity of neurons in the bristle was monitored, after which time UV illumination was administered to the sensilla for 20 s using optical fiber-coupled UV LEDs (FCS-0295–000, Mightex, CA, and UVTOP295, Qphotonics, MI, USA for UVB at 295 nm and M365FP1, Thorlabs, USA for UVA at 365 nm) controlled by an SLA-series two-channel LED driver (SLA-0100–2, Mightex) and a T-Cube LED driver (LEDD1B, Thorlab, USA), respectively. The maximal optical fiber output of 295 nm UV was 0.063 mWusing a ball-lens type LED and that of 365 nm UV was 0.3 mW. These net power outputs at the tip of the optical fiber were measured with a photodiode sensor (S120VC, Thorlabs, NJ, USA) connected to a digital console (PM100D, Thorlabs, NJ, USA). Illumination intensity was calculated by considering the size of illuminated area derived from the numerical aperture (NA) values of the optical fibers and the distance to the samples. Due to the complex shape of fly taste bristles on the labellum and various illumination angles between the light beam and tissue, we simplified the calculation by postulating a 45° angle and oval illumination area at a distance (Figure 1—figure supplement 1d). For oocytes, circular areas were calculated (Figure 1—figure supplement 1e). Blue and green light illumination was accomplished using a GFP or RFP excitation filter (470 or 540 nm with a bandpath of 50, respectively) equipped with a typical fluorescence microscope. The UV filter for experiments with white light consisted of glass deposited with nanolayers of titanium dioxide (custom-made, Seoul Precision Optics, Seoul, Korea). Flies prepared for sensillum recording in response to light were used once to record from a single bristle, in order to test only naïve cells. The reference electrode containing hemolymph-like solution 3.1 (HL3.1) ([Feng et al., 2009]) was inserted close to the labella taste neuron cell bodies from the back of the fly thorax, which held the proboscis in an extended configuration in order to minimize electrical noise stemming from movement of the live animal. Tasteprobe (Syntech, Netherlands) was used as a preamplifier to register the action potentials from the neurons, which were digitized with Powerlab (ADI instruments, Australia). The obtained spiking frequencies were analyzed by Labchart (ADI instruments, Australia). Non-responding bristles were re-tested with other agonists that activate the same neurons as indicated in the main text (Figure 1—figure supplement 2 and Figure 3—figure supplement 1).

[5] = tested on: TRPA1(A)R113A/R116A; assay: Two-electrode voltage clamp of Xenopus oocytes expressing TRPA1(A)R113A/R116A; assay type: cell-based, Drosophila melanogaster
Protocol: as §1

[6] = target: agTRPA1(A) (Anopheles gambiae, UniProt B3G3I7); assay: Two-electrode voltage clamp of Xenopus oocytes expressing agTRPA1(A); assay type: cell-based; details: for isoform preference of activation: −60 mV, agTRPA1(A) versus agTRPA1(B)
agTRPA1(A), sequence (B3G3I7 entry or part of it): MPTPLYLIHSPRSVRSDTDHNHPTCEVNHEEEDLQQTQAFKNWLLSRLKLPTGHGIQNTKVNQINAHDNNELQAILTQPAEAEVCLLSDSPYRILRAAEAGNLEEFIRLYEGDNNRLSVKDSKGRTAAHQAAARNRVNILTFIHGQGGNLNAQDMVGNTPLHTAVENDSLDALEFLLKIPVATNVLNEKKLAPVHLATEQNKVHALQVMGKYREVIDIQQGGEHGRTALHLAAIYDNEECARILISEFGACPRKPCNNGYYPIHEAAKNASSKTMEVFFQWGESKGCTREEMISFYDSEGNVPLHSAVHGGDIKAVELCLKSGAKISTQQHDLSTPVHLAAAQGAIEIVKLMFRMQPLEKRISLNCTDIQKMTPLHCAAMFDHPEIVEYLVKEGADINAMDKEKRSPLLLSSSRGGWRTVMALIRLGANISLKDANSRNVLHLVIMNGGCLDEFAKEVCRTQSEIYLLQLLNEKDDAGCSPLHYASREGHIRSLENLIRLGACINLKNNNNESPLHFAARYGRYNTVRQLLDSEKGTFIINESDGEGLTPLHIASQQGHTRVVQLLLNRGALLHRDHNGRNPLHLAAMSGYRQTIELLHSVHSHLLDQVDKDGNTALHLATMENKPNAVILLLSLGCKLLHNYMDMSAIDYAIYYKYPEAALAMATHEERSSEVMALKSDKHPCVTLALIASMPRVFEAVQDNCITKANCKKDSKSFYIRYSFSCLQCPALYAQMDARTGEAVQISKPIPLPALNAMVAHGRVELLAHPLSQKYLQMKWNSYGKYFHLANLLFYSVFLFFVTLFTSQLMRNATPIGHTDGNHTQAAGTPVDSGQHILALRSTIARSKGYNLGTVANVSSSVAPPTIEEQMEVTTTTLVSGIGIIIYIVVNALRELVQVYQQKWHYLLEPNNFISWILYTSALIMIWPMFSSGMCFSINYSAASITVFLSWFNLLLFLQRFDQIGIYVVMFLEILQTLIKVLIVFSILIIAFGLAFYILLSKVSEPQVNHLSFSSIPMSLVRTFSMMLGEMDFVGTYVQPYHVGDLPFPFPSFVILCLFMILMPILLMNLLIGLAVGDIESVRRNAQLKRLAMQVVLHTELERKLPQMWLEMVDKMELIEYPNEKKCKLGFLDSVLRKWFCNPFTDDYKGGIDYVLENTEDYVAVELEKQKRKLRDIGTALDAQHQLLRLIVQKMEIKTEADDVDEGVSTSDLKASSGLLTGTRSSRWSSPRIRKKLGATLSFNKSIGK
Protocol: as §1

[7] = tested on: agTRPA1(B); assay: Two-electrode voltage clamp of Xenopus oocytes expressing agTRPA1(B); assay type: cell-based, Anopheles gambiae; details: 0.1 mM APS
Protocol: as §1

[8] = tested on: mouse TRPA1; details: extracellular Ca2+ required; ref Andersson et al., 2008; cited from earlier work
[9] = tested on: Drosophila (WT: wcs); assay: Capillary feeder (Café) assay, feeding avoidance; assay type: in vivo, Drosophila melanogaster; parameters: dose or concentration left out as unconfirmed; details: WT flies
Protocol: To quantitatively evaluate the impact of UV irradiation and chemicals on feeding deterrence, the capillary feeder (Café) assay ([Ja et al., 2007]) was used with minor modifications. In particular, feeding avoidance upon UV illumination was determined using two sibling populations of 16 hr starved flies. […] Irradiance was measured as ~1.8, 4, and 57.1 mW/cm^2for UVA, UVB, and white light, respectively, using an excised piece of a vial covering the photodiode probe (S120VC, Thorlabs, NJ, USA) to simulate internal irradiation. The vials were made of polypropylene, which has a low rate of UV transmission ([Kruenate et al., 2004]), resulting in increased internal temperature, as described in Figure 1—figure supplement 3. To minimize thermal accumulation, the UV-illuminated vial was actively cooled by fan-driven air flow while the internal temperature of a separately illuminated vial was concurrently monitored. After each feeding session, the change in the level of the menisci of 30 mM sucrose solutions in three calibrated glass capillary tubes (#2920107, Marienfeld, Lauda-Königshofen, Germany, 15 mm/μl) was measured. Following measurement of the evaporated volume obtained from vials without flies, the distance readings were converted to volume measurements. […]

[10] = target: T3, Drosophila TRPA1(A) (Drosophila melanogaster, UniProt Q7Z020); assay: Two-electrode voltage clamp of Xenopus oocytes expressing Drosophila TRPA1(A); assay type: cell-based
T3 sequence (Q7Z020 1-1197): T1 sequence (Q7Z020 1-1197)
Protocol: as §1

DTT current response ([1]; Xenopus oocytes): little compared to that of TRPA1(A)
EC50 [6]: ~3.8 µM
Compound: O[C@@H](CS)[C@@H](O)CS (racemic) [DTT, dithiothreitol]
DTT current response [2]: seldom showed electrophysiological responses to DTT
DTT responsiveness [3]: indistinguishable from that of TRPA1(B)
effect of pre-application on UV-evoked action potentials [4]: lowered the frequencies of UV-evoked action potentials
DTT responsiveness [5]: indistinguishable from that of TRPA1(B)

Compound: N.N.O=S(=O)(O)OOS(=O)(=O)O [APS, ammonium persulfate]
channel activation ([6]; 0.1 mM APS, mixture 0.01 mM TEMED and 0.1 mM APS, from 30 min after mixing): activated agTPRA1(A)
channel activation [7]: not agTRPA1(B)

Compound: S=C=NCc1ccccc1 [BITC, benzyl isothiocyanate]
effect of pre-application on UV-evoked action potentials [4]: lowered the frequencies of UV-evoked action potentials

Compound: N#CSCc1ccccc1 [BTC, benzyl thiocyanate]
effect of pre-application on UV-evoked action potentials [4]: lowered the frequencies of UV-evoked action potentials
isoform preference of activation ([6]; Xenopus oocytes): preferentially activated agTRPA1(A) over agTRPA1(B)

Compound: OO [H2O2, hydrogen peroxide]
EC50 [8]: ~230 µM
feeding avoidance [9]: increasingly avoided ingestion of H2O2-containing food
EC50 [1]: 900 ± 200 µM
H2O2 current response [2]: remarkably reduced responses to H2O2
H2O2 current response [3]: remarkably reduced responses to H2O2
spiking response of bitter-sensing neurons ([4]; 100 mM H2O2, required the TrpA1 gene): robust spiking response
H2O2 current response [5]: remarkably reduced responses to H2O2
EC50 [6]: 1.7 ± 0.3 µM
NMM-normalized peak current amplitude relative to Drosophila TRPA1(A) ([6]; Xenopus oocytes): ~ 5 times
EC50 [10]: 5 ± 0.8 µM
lowest concentration that readily activates the channel ([10]; Xenopus oocytes, 'as low as'): 100 nM
Emax ([10]; read-out: average maximal current amplitude relative to NMM responses): ~30%

Compound: CN1C(=O)C=CC1=O [NMM, N-methyl maleimide]
feeding avoidance [9]: showed NMM-dependent feeding avoidance
effect of pre-application on UV-evoked action potentials [4]: lowered the frequencies of UV-evoked action potentials
effect on the stimulatory effect of APS/TEMED co-incubation ([6]; NMM at 0.01 mM): abolished
reversal potential of evoked current ([10]; Xenopus oocytes, n = 7): −5.4 ± 1.0 mV
rectification: ratio of conductance at +60 mV to that at −60 mV ([10]; net response, Xenopus oocytes, n = 4): 1.7 ± 0.3

Compound: c1c[nH]cn1 [imidazole]
isoform preference of activation ([6]; Xenopus oocytes): preferentially activated agTRPA1(A) over agTRPA1(B)
